Data from ChEMBL document CHEMBL1955768, “Impact of stereochemistry on the biological activity of novel oleandomycin derivatives” (Bioorg Med Chem, 2012).
In brackets after ≈: the same amount, converted by molar mass. Activity calls are given as the source filed them. The calls are words filed in the database; no cut-off is given here.

Experiments:
Streptococcus pneumoniae = assay: Antibacterial activity against Streptococcus pneumoniae ATCC 49619 by broth microdilution method; assay type: functional
Moraxella catarrhalis = assay: Antibacterial activity against Moraxella catarrhalis ATCC 23246 by broth microdilution method; assay type: functional
Staphylococcus aureus = assay: Antibacterial activity against Staphylococcus aureus ATCC 13709 by broth microdilution method; assay type: functional
Splenocyte = assay: Inhibition of LPS-induced IL-6 production in mouse splenocytes at 50 uM after 2 hrs preincubation by ELISA; assay type: functional
THP-1 = assay: Cytotoxicity against human THP1 cells at 100 uM after 24 hrs by MTS assay; assay type: cell-based; conditions: thp-1, 24 h
Haemophilus influenzae = assay: Antibacterial activity against Haemophilus influenzae ATCC 49247 by broth microdilution method; assay type: functional
Streptococcus pyogenes = assay: Antibacterial activity against Streptococcus pyogenes ATCC 700294 by broth microdilution method; assay type: functional; conditions: M1 GAS
Mus musculus = assay: Antiinflammatory activity against LPS-induced lung neutrophilia in BALB/cJ mouse model assessed as reduction in neutrophil numbers in bronchoalveolar lavage fluid at 100 mg/kg, ip treated 2 hrs before LPS challenge measured after 24 hrs by hematological analyzer; assay type: functional, organism-based; set-up: dose 100 mg/kg

Row | Compound | MIC (Streptococcus pneumoniae) [µg/mL] | MIC (Moraxella catarrhalis) [µg/mL] | MIC (Staphylococcus aureus) [µg/mL] | inhibition at 50 µM (Splenocyte) [%] | Activity (THP-1) | MIC (Haemophilus influenzae) [µg/mL] | MIC (Streptococcus pyogenes) [µg/mL] | Activity (Mus musculus)
1 | CO[C@H]1C[C@H](O[C@H]2[C@H](C)[C@@H](O[C@@H]3O[C@H](C)C[C@H](N(C)C)[C@H]3O)[C@@H](C)C[C@@H](C)C(=O)[C@H](C)[C@@H](O)[C@@H](C)[C@@H](C)OC(=O)[C@@H]2C)O[C@@H](C)[C@@H]1O | 0.25 (≈ 0.371 µM) | 2 (≈ 2.97 µM) | 4 (≈ 5.94 µM) | 69 | Non-toxic | > 64 | 0.5 (≈ 0.742 µM) | 
2 | C=C1C[C@H](C)[C@H](O[C@@H]2O[C@H](C)C[C@H](N(C)C)[C@H]2O)[C@@H](C)[C@H](O[C@H]2C[C@H](OC)[C@@H](O)[C@H](C)O2)[C@@H](C)C(=O)O[C@H](C)[C@H](C)[C@H](O)[C@@H](C)[C@H]1O | > 64 | > 64 | > 64 | 13 | Non-toxic | > 64 | > 64 | 
3 | CO[C@H]1C[C@H](O[C@H]2[C@H](C)[C@@H](O[C@@H]3O[C@H](C)C[C@H](N(C)C)[C@H]3O)[C@@H](C)C[C@@H](C)[C@H](O)[C@H](C)[C@@H](O)[C@@H](C)[C@@H](C)OC(=O)[C@@H]2C)O[C@@H](C)[C@@H]1O | 4 (≈ 5.92 µM) | > 64 | > 64 | 61 | Non-toxic | > 64 | > 64 | Active
4 | CO[C@H]1C[C@H](O[C@H]2[C@H](C)[C@@H](O[C@@H]3O[C@H](C)C[C@H](N(C)C)[C@H]3O)[C@@H](C)C[C@@H](C)[C@@H](O)[C@H](C)[C@@H](O)[C@@H](C)[C@@H](C)OC(=O)[C@@H]2C)O[C@@H](C)[C@@H]1O | > 64 | > 64 | > 64 | 2 | Non-toxic | > 64 | > 64 | 
5 | CO[C@H]1C[C@H](O[C@H]2[C@H](C)[C@@H](O[C@@H]3O[C@H](C)C[C@H](N(C)C)[C@H]3O)[C@@H](C)C[C@H](C)[C@H](O)[C@H](C)[C@@H](O)[C@@H](C)[C@@H](C)OC(=O)[C@@H]2C)O[C@@H](C)[C@@H]1O | > 64 | > 64 | > 64 | 12 | Non-toxic | > 64 | > 64 | 
6 | C=C1C[C@H](C)[C@H](O[C@@H]2O[C@H](C)C[C@H](N(C)C)[C@H]2O)[C@@H](C)[C@H](O[C@H]2C[C@H](OC)[C@@H](O)[C@H](C)O2)[C@@H](C)C(=O)O[C@H](C)[C@H](C)[C@H](O)[C@@H](C)[C@@H]1O | > 64 | > 64 | > 64 | 13 | Non-toxic | > 64 | > 64 | 
7 | CO[C@H]1C[C@H](O[C@H]2[C@H](C)[C@@H](O[C@@H]3O[C@H](C)C[C@H](N(C)C)[C@H]3O)[C@@H](C)C[C@H](C)C(=O)[C@H](C)[C@@H](O)[C@@H](C)[C@@H](C)OC(=O)[C@@H]2C)O[C@@H](C)[C@@H]1O | > 64 | > 64 | > 64 | 42 | Non-toxic | > 64 | > 64 | 
8 | CO[C@H]1C[C@H](O[C@H]2[C@H](C)[C@@H](O[C@@H]3O[C@H](C)C[C@H](N(C)C)[C@H]3O)[C@@H](C)C[C@H](C)[C@@H](O)[C@H](C)[C@@H](O)[C@@H](C)[C@@H](C)OC(=O)[C@@H]2C)O[C@@H](C)[C@@H]1O | > 64 | > 64 | > 64 | 2 | Non-toxic | > 64 | > 64 | Active
